The test system of experiment [1] is Hek293 empty vector. Briefly: In vitro cell viability (CellTiter-Glo), Hek293 empty vector. It counts as cell-based. Conditions: Homo sapiens, HEK293; read-out: Hek293 empty vector viability. As for the experimental part: HEK293 (ATCC, catalog #CRL-1573) cells are plated in 10 cm dishes (Corning, product #430167) into 10 mL of complete DMEM cell culture media [DMEM (Life Technologies, product #11960-051) media supplemented with 10% FBS (Hyclone, catalog #SH30071.03), antimycotic/antibiotic (Life Technologies, product #15240-062), and Glutamax (Life Technologies, product #35050-061)] at 3×10^6 cells per dish. Cells are allowed to attach and grow overnight at 37° C. in humidified 5% CO2. Cells are co-transfected with pVSV-G, pCMV-Gag/Pol and pCLPCX_WFS1 using Fugene 6 (Promega, catalog #E2691) according to manufacturer's protocol. Separately, cells are co-transfected with pVSV-G, pCMV-Gag/Pol and pCLPCX to produce control retrovirus. Cell culture media containing retrovirus (viral supernatant) is collected at 48 and 72 hours following transfection, filtered through a 0.4 uM filter, and stored at −80° C.
HEK293 cells are plated in 6 well plates (Corning, product #3516) in 2 mL of complete DMEM cell culture media at 1×10^5 cells well and allowed to attach and grow overnight at 37° C. in humidified 5% CO2. The following day, the media is replaced with viral supernatant to which 10 ug/ml of Polybrene® (Santa Cruz Biotech, catalog #sc-134220) is added. Viral supernatant is replaced 24 hours later with complete DMEM media. Transduced cells are selected in complete DMEM cell culture media containing 1 microgram/mL of puromycin (Life Technologies, catalog #A1113803).
(§1) HEK293 cells containing empty pCLPCx vector (HEK293 empty), HEK293 cells stably over-expression WFS1 (HEK293 WFS1), HepG2, and HepG2 cells where WFS1 was depleted via CRISPR/Cas9 (HepG2 WFS1 KO) cells were plated into 96-well black plates (Corning, product #3904) in 100 microliters of complete DMEM cell culture media [DMEM (Life Technologies, product #11960-051) media supplemented with 10% FBS (Hyclone, catalog #SH30071.03), antimycotic/antibiotic (Life Technologies, product #15240-062), and Glutamax (Life Technologies, product #35050-061)] at 1,000 (HEK293) or 5,000 (HepG2) cells per well. Cells were allowed to attach and grow overnight, after which compounds are added at various concentrations. Cell viability was assessed 96 hrs after compound addition with CellTiter-Glo reagent (Promega, catalog #G7570) according to manufacturer's protocol and measurement on a Pherastar luminescence plate reader (BMG Labtech).
The IC50s for the viability of both the Hek293 empty vector and WFS1 over-expressing cells are summarized in Table 47: A<0.06 μM; 0.06 μM≤B<0.6 μM; 0.6 μM≤C<3.0 μM; D≥3.0 μM.

Experiment [2] has as its system HepG2 parental. The experiment in a line: In vitro cell viability (CellTiter-Glo), HepG2 parental. The experiment is classed as cell-based. To be noted: Homo sapiens, 96 hours, read-out: HepG2 viability. As for the experimental part: as §1
To determine the effect of WFS1 depletion on compound mediated inhibition of cell viability, parental HepG2 cells and HepG2 cells where WFS1 was deleted by CRISPR/Cas9 were exposed to increasing concentrations of either Compound 136 or Compound 253 for 96 hours after which time viability was determined using Cell Titer Glo reagent (Promega). […] The IC50s for the viability of both the HepG2 parental and WFS1 knockout cells are summarized in Table 47: A<0.5 μM; 0.5 μM≤<2.0 μM; 2.0 μM≤C<10.0 μM; D≥[…].

For experiment [3], the target named is HEK293 membranes over-expressing WFS-1 (Homo sapiens (Human), UniProt O76024). Briefly: Radioligand displacement assay (tritiated Compound 136 probe). It counts as binding. To be noted: displacement of tritiated Compound 136. An outline of the steps:
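WFS-1-overexpressing HEK293 membranes were preincubated 10 min with compound, then tritiated probe was added for 90 min at room temperature. Bound probe was collected by filtration on PEI-pretreated GF/B filters, washed and scintillation-counted. IC50 came from a 3-parameter fit of bound probe vs compound concentration.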

Chain of HEK293 membranes over-expressing WFS-1 (O76024 whole entry): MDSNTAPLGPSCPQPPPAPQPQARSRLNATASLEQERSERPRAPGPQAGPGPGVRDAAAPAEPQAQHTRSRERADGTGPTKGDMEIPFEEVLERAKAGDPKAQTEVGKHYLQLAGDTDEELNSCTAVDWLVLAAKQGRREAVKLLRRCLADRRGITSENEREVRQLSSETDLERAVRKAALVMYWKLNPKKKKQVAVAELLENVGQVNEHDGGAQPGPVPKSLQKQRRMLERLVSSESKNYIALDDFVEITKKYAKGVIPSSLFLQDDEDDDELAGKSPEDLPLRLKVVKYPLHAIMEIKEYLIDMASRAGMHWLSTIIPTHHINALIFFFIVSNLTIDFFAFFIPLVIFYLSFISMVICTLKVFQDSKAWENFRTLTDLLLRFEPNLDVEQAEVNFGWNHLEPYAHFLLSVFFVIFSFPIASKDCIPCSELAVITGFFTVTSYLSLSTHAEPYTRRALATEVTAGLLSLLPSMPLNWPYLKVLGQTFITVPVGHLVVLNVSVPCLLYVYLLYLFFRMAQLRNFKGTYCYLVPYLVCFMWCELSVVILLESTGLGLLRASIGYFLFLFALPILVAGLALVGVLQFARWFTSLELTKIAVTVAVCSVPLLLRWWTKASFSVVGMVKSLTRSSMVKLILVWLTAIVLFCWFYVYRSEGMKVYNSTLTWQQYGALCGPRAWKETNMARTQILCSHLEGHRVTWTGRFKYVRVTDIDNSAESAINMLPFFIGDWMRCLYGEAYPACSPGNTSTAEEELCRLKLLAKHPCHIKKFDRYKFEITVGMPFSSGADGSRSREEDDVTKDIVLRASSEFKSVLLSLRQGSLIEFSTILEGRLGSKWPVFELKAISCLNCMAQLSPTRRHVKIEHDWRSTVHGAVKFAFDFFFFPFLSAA

Regarding `Cc1nc(N[C@H]2CC[C@H](n3ccc(C(F)(F)F)n3)C2)nc2c1NC(=O)[C@H](C)N2C` (single isomer, unassigned) [Compound 310], the IC50 in experiment [1] was not below 3 µM; in experiment [2] it was not below 10 µM; in experiment [3], 0.6 to 3 µM.
Turning to `Cc1nc(N[C@@H]2CC[C@@H](n3ccc(C(F)(F)F)n3)C2)nc2c1NC(=O)[C@H](C)N2C` (single isomer, unassigned) [Compound 311], the IC50 in experiment [1] is not below 3 µM; in experiment [2], not below 10 µM; in experiment [3] it was 0.06 to 0.6 µM.
As to `Cc1nc(NCc2cnn(Cc3ccc(C(F)(F)F)nc3[C@@H](C)O)c2)nc2c1NC(=O)[C@H](C)N2C` (single isomer, unassigned) [Compound 420], the IC50 in experiment [1] is not below 3 µM; in experiment [2], 0.5 to 2 µM; in experiment [3] it was 0.06 to 0.6 µM.
Turning to `Cc1nc(NCc2cnn(Cc3ccc(F)cc3)c2)nc2c1N(C)C(=O)[C@H](C)N2C` [Compound 1, (7S)-2-(((1-(4-fluorobenzyl)-1H-pyrazol-4-yl)methyl)amino)-4,5,7,8-tetramethyl-7,8-dihydropteridin-6(5H)-one], the results for the IC50 in experiment [1], in experiment [2] and in experiment [3] were not below 3 µM, less than 0.5 µM and 0.06 to 0.6 µM, respectively.
Take `Cc1nc(NCc2cnn(Cc3ccc(F)cc3)c2)nc2c1NC(=O)[C@H](C)N2C` [Compound 4, (7S)-2-(((1-(4-fluorobenzyl)-1H-pyrazol-4-yl)methyl)amino)-4,7,8-trimethyl-7,8-dihydropteridin-6(5H)-one]: the IC50 in experiment [1] is not below 3 µM; in experiment [2], 2 to 10 µM; in experiment [3] it was 0.06 to 0.6 µM.
As to `Cc1nc(NCc2cnn(Cc3ccc(C(F)(F)F)nc3)c2)nc2c1NC(=O)[C@H](C)N2C(C)C` [Compound 385, (7S)-8-isopropyl-4,7-dimethyl-2-(((1-((6-(trifluoromethyl)pyridin-3-yl)methyl)-1H-pyrazol-4-yl)methyl)amino)-7,8-dihydropteridin-6(5H)-one], the values for the IC50 in experiment [1] and in experiment [3] were not below 3 µM and less than 0.06 µM, respectively.
For `Cc1nc(NCc2cnn(Cc3ccc(C(F)(F)F)nc3)c2)nc2c1NC(=O)[C@H](C1CC1)N2C` [Compound 386, (7S)-7-Cyclopropyl-4,8-dimethyl-2-(((1-((6-(trifluoromethyl)pyridin-3-yl)methyl)-1H-pyrazol-4-yl)methyl)amino)-7,8-dihydropteridin-6(5H)-one] the same measures were not below 3 µM and 0.06 to 0.6 µM.
Turning to `Cc1nc(NCc2cnn(Cc3ccc(C(F)(F)F)nc3C(C)C)c2)nc2c1NC(=O)[C@H](C)N2C` [Compound 388, (7S)-2-(((1-((2-isopropyl-6-(trifluoromethyl)pyridin-3-yl)methyl)-1H-pyrazol-4-yl)methyl)amino)-4,7,8-trimethyl-7,8-dihydropteridin-6(5H)-one], the IC50 was not below 3 µM in experiment [1] and less than 0.06 µM in experiment [3].
Take `CCN1c2nc(NCc3cnn(Cc4ccc(C(F)(F)F)nc4)c3)nc(C)c2NC(=O)[C@@H]1C` [Compound 395, (7S)-8-Ethyl-4,7-dimethyl-2-(((1-((6-(trifluoromethyl)pyridin-3-yl)methyl)-1H-pyrazol-4-yl)methyl)amino)-7,8-dihydropteridin-6(5H)-one]: the IC50 in experiment [1] was not below 3 µM; in experiment [3], 0.06 to 0.6 µM.
In the case of `Cc1nc(NCc2cnn(Cc3cc(C(F)(F)F)nn3C)c2)nc2c1NC(=O)[C@H](C1CC1)N2C` [Compound 396, (7S)-7-Cyclopropyl-4,8-dimethyl-2-(((1-((1-methyl-3-(trifluoromethyl)-1H-pyrazol-5-yl)methyl)-1H-pyrazol-4-yl)methyl)amino)-7,8-dihydropteridin-6(5H)-one], the figures for the IC50 in experiment [1] and in experiment [3] were not below 3 µM and 0.06 to 0.6 µM, respectively.
As for `Cc1nc(NCc2cnn(Cc3cc(C(F)(F)F)nn3C)c2)nc2c1NC(=O)[C@H](C(C)C)N2C` [Compound 397, (7S)-7-Isopropyl-4,8-dimethyl-2-(((1-((1-methyl-3-(trifluoromethyl)-1H-pyrazol-5-yl)methyl)-1H-pyrazol-4-yl)methyl)amino)-7,8-dihydropteridin-6(5H)-one], the IC50 was not below 3 µM in experiment [1] and 0.06 to 0.6 µM in experiment [3].
